Tests used:
Assay type in all cases: cell-based, human
TMPRSS2 mRNA = test: TMPRSS2 expression in C4-2 cells; settings: 48 hrs; for Percent inhibition of TMPRSS2 expression: C4-2 cells, CSS + DHT medium
Description: Cells were plated at 1,000 cells per well. […] After an incubation period of 48 hrs, RNA levels of AR, PSA and TMPRSS2 were measured.
Cells were plated at 2,000 cells per well and cultured in CSS media with 1 nM DHT. […] After an incubation period of 48 hrs, RNA levels of AR, PSA and TMPRSS2 were measured.

22RV1 cells [1] = test: 22RV1 apoptosis (Caspase-glo 3/7); settings: 72 hours; for Apoptosis (% untreated control): 22RV1 cells
Description: After a treatment period of 72 hours in complete medium or CSS+DHT medium, apoptosis of the cancer cells was measured with Caspase-glo 3/7 assay kit (Promega). Results are presented in Tables 131 and 132 as percent apoptosis of the cells, relative to non-treated cells.

full length AR mRNA = test: Full-length AR RNA in 22RV1 cells (complete, CSS+DHT medium); settings: RNAiMax, 48 hrs
Description: Cells were plated at 1,000 cells per well. […] After an incubation period of 48 hrs, RNA levels of full length AR, the V7 variant, PSA and TMPRSS2 were measured.
After an incubation period of 48 hrs, RNA levels of full length AR, the V7 variant, PSA and TMPRSS2 were measured.
Cells were plated at 2,000 cells per well and cultured in CSS media for 16 hours. […] After 4 hrs, 1 nM DHT was added. […] After an incubation period of 48 hrs, RNA levels of AR, AR V7 variant, PSA and TMPRSS2 were measured.

22RV1 cells [2] = test: 22RV1 cell proliferation, ASO in combination with MDV3100 (Example 22); settings: for Proliferation (% untreated control) in 22RV1 without MDV-3100: RNAiMAX, 3 days
Summary of the method: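 Cells seeded at 2,000 per well in 5% CSS medium for 48 h, then treated for 3 days. Proliferation read with a tetrazolium (CellTiter 96 AQueous One) kit and given as percent inhibition relative to untreated cells.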

Sequence: TTGATTTAATGGTTGC [ISIS 560131] (MOE and (S)-cEt gapmer chemistry, further chemistry not given here) [targets intron 1]
- Percent inhibition of TMPRSS2 expression (TMPRSS2 mRNA; 0.04 μM): 10%
- Percent inhibition of TMPRSS2 expression (TMPRSS2 mRNA; 0.2 μM): 17%
- Percent inhibition of TMPRSS2 expression (TMPRSS2 mRNA; 1 μM): 51%
- Percent inhibition of TMPRSS2 expression (TMPRSS2 mRNA; 5.0 μM): 78%
- Percent inhibition of TMPRSS2 expression in C4-2 cells cultured in complete medium (TMPRSS2 mRNA; 0.04 μM): 29%
- Percent inhibition of TMPRSS2 expression in C4-2 cells cultured in complete medium (TMPRSS2 mRNA; 0.2 μM): 62%
- Percent inhibition of TMPRSS2 expression in C4-2 cells cultured in complete medium (TMPRSS2 mRNA; 1 μM): 76%
- Percent inhibition of TMPRSS2 expression in C4-2 cells cultured in complete medium (TMPRSS2 mRNA; 5.0 μM): 71%
- Apoptosis (% untreated control) (22RV1 cells [1]; CSS + DHT medium, 1.34 nM): 121 % untreated control
- Apoptosis (% untreated control) (22RV1 cells [1]; CSS + DHT medium, 4.0 nM): 113 % untreated control
- Apoptosis (% untreated control) (22RV1 cells [1]; CSS + DHT medium, 13.4 nM): 172 % untreated control
- Apoptosis (% untreated control) (22RV1 cells [1]; CSS + DHT medium, 40 nM): 518 % untreated control
- Apoptosis (% untreated control) (22RV1 cells [1]; complete medium, 1.34 nM): 99 % untreated control
- Apoptosis (% untreated control) (22RV1 cells [1]; complete medium, 4.0 nM): 127 % untreated control
- Apoptosis (% untreated control) (22RV1 cells [1]; complete medium, 13.4 nM): 131 % untreated control
- Apoptosis (% untreated control) (22RV1 cells [1]; complete medium, 40 nM): 566 % untreated control
- apoptosis of 22RV1 cells (22RV1 cells [1]; complete or CSS+DHT medium): increased apoptosis of the cells in a dose dependent compared to the control
- Percent inhibition of full-length AR (full length AR mRNA; CSS + DHT medium, 1.34 nM): 65%
- Percent inhibition of full-length AR (full length AR mRNA; CSS + DHT medium, 4.0 nM): 85%
- Percent inhibition of full-length AR (full length AR mRNA; CSS + DHT medium, 13.4 nM): 93%
- Percent inhibition of full-length AR (full length AR mRNA; complete medium, 1.34 nM): 7%
- Percent inhibition of full-length AR (full length AR mRNA; complete medium, 4.0 nM): 19%
- Percent inhibition of full-length AR (full length AR mRNA; complete medium, 13.4 nM): 49%
- Percent inhibition of full-length AR (full length AR mRNA; complete medium, 40 nM): 76%
- synergy with MDV3100 (22RV1 cells [2]; 22RV1 cells): synergistic with MDV3100
- cell proliferation inhibited, combination (22RV1 cells [2]; 22RV1 cells, 1.34 nM ASO in combination with 1.0 μM MDV3100): 23%
- inhibited cell proliferation, ASO alone (22RV1 cells [2]; 22RV1 cells, ASO alone at 1.34 nM): 3%
- Proliferation (% untreated control) in 22RV1 cells with 0.04 μM MDV-3100 (22RV1 cells [2]; ASO dose 0.4 nM + 0.04 μM MDV-3100): 96 % untreated control
- Proliferation (% untreated control) in 22RV1 cells with 0.2 μM MDV-3100 (22RV1 cells [2]; ASO dose 0.4 nM + 0.2 μM MDV-3100): 95 % untreated control
- Proliferation (% untreated control) in 22RV1 cells with 1.0 μM MDV-3100 (22RV1 cells [2]; ASO dose 0.4 nM + 1.0 μM MDV-3100): 96 % untreated control
- Proliferation (% untreated control) in 22RV1 cells with 5.0 μM MDV-3100 (22RV1 cells [2]; ASO dose 0.4 nM + 5.0 μM MDV-3100): 91 % untreated control
- Proliferation (% untreated control) in 22RV1 without MDV-3100 (22RV1 cells [2]; ASO dose 0.4 nM): 103 % untreated control
- Proliferation (% untreated control) in 22RV1 cells with 0.04 μM MDV-3100 (22RV1 cells [2]; ASO dose 1.34 nM + 0.04 μM MDV-3100): 80 % untreated control
- Proliferation (% untreated control) in 22RV1 cells with 0.2 μM MDV-3100 (22RV1 cells [2]; ASO dose 1.34 nM + 0.2 μM MDV-3100): 90 % untreated control
- Proliferation (% untreated control) in 22RV1 cells with 1.0 μM MDV-3100 (22RV1 cells [2]; ASO dose 1.34 nM + 1.0 μM MDV-3100): 77 % untreated control
- Proliferation (% untreated control) in 22RV1 cells with 5.0 μM MDV-3100 (22RV1 cells [2]; ASO dose 1.34 nM + 5.0 μM MDV-3100): 76 % untreated control
- Proliferation (% untreated control) in 22RV1 without MDV-3100 (22RV1 cells [2]; ASO dose 1.34 nM): 97 % untreated control
- Proliferation (% untreated control) in 22RV1 cells with 0.04 μM MDV-3100 (22RV1 cells [2]; ASO dose 4.0 nM + 0.04 μM MDV-3100): 65 % untreated control
- Proliferation (% untreated control) in 22RV1 cells with 0.2 μM MDV-3100 (22RV1 cells [2]; ASO dose 4.0 nM + 0.2 μM MDV-3100): 76 % untreated control
- Proliferation (% untreated control) in 22RV1 cells with 1.0 μM MDV-3100 (22RV1 cells [2]; ASO dose 4.0 nM + 1.0 μM MDV-3100): 63 % untreated control
- Proliferation (% untreated control) in 22RV1 cells with 5.0 μM MDV-3100 (22RV1 cells [2]; ASO dose 4.0 nM + 5.0 μM MDV-3100): 63 % untreated control
- Proliferation (% untreated control) in 22RV1 without MDV-3100 (22RV1 cells [2]; ASO dose 4.0 nM): 77 % untreated control
- Proliferation (% untreated control) in 22RV1 cells with 0.04 μM MDV-3100 (22RV1 cells [2]; ASO dose 13.4 nM + 0.04 μM MDV-3100): 39 % untreated control
- Proliferation (% untreated control) in 22RV1 cells with 0.2 μM MDV-3100 (22RV1 cells [2]; ASO dose 13.4 nM + 0.2 μM MDV-3100): 51 % untreated control
- Proliferation (% untreated control) in 22RV1 cells with 1.0 μM MDV-3100 (22RV1 cells [2]; ASO dose 13.4 nM + 1.0 μM MDV-3100): 40 % untreated control
- Proliferation (% untreated control) in 22RV1 cells with 5.0 μM MDV-3100 (22RV1 cells [2]; ASO dose 13.4 nM + 5.0 μM MDV-3100): 41 % untreated control
- Proliferation (% untreated control) in 22RV1 without MDV-3100 (22RV1 cells [2]; ASO dose 13.4 nM): 57 % untreated control

From USRE48461E1, “Modulation of androgen receptor expression” (Ionis Pharmaceuticals, Inc., priority 2012, dated 2021)
